The source made the active and inactive calls. No cut-off for these calls is given here.
Tests used:
[1] = test system: PBMC; experiment: Immunomodulatory activity in human PBMC assessed as increase in LPS-induced TNF-alpha production at 10 uM after 24 hrs by flow cytometric analysis; type: functional, cell-based
[2] = test system: PBMC; experiment: Immunomodulatory activity in human PBMC assessed as increase in IL-12p70 production at 10 uM after 24 hrs by flow cytometric analysis; type: functional, cell-based
[3] = test system: PBMC; experiment: Immunomodulatory activity in human PBMC assessed as increase in IL-6 production at 10 uM after 24 hrs by flow cytometric analysis; type: functional, cell-based
[4] = test system: PBMC; experiment: Immunomodulatory activity in human PBMC assessed as increase in IL-10 production at 10 uM after 24 hrs by flow cytometric analysis; type: functional, cell-based
[5] = test system: PBMC; experiment: Immunomodulatory activity in human PBMC assessed as increase in LPS-induced IL-6 production at 10 uM after 24 hrs by flow cytometric analysis; type: functional, cell-based
[6] = target: T1, Nucleotide-binding oligomerization domain-containing protein 1 (Homo sapiens) (UniProt Q9Y239); experiment: Agonist activity at human Nod1 expressed in human Ramos-Blue cells assessed as increase in NF-kappaB transcriptional activity at 10 uM after 24 hrs by SEAP reporter gene assay; type: cell-based
T1 sequence (whole entry): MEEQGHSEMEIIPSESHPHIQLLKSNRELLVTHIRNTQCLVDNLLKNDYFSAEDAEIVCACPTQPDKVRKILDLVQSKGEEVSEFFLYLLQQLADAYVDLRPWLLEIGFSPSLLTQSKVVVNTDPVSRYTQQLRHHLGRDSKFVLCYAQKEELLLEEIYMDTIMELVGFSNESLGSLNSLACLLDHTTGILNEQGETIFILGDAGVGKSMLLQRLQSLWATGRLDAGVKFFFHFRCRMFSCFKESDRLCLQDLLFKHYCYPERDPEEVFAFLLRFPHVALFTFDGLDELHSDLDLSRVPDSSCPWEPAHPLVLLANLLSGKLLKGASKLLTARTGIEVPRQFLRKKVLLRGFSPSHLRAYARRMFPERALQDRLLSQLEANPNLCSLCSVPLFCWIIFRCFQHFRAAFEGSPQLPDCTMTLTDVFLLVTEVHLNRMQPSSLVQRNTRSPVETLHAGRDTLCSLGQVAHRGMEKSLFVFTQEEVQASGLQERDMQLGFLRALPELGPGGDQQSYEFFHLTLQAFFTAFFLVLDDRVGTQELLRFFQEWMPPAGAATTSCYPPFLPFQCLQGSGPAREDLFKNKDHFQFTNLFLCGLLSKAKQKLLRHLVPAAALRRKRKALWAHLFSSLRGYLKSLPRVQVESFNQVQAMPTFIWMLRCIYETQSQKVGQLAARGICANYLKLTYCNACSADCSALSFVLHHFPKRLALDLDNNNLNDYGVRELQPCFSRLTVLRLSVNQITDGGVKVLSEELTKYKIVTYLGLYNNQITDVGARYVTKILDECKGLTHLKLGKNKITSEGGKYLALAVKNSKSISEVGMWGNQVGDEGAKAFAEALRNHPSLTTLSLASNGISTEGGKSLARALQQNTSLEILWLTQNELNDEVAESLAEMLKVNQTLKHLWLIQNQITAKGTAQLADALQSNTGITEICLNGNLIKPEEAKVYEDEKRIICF

[7] = test system: PBMC; experiment: Immunomodulatory activity in human PBMC assessed as increase in IL-8 production at 10 uM after 24 hrs by flow cytometric analysis; type: functional, cell-based
[8] = test system: PBMC; experiment: Immunomodulatory activity in human PBMC assessed as increase in IL-1beta production at 10 uM after 24 hrs by flow cytometric analysis; type: functional, cell-based
[9] = test system: PBMC; experiment: Immunomodulatory activity in human PBMC assessed as increase in LPS-induced IL-1beta production at 10 uM after 24 hrs by flow cytometric analysis; type: functional, cell-based
[10] = target: T1, Nucleotide-binding oligomerization domain-containing protein 1 (Homo sapiens); experiment: Agonist activity at human Nod1 expressed in human Ramos cells assessed as reduction of NF-kappaB transcriptional activity at 10 uM after 24 hrs by SEAP reporter gene assay in presence of nod1 antagonist noditinib-1; type: cell-based
[11] = test system: PBMC; experiment: Immunomodulatory activity in human PBMC assessed as increase in TNF-alpha production at 10 uM after 24 hrs by flow cytometric analysis; type: functional, cell-based
[12] = test system: PBMC; experiment: Immunomodulatory activity in human PBMC assessed as increase in LPS-induced IL-12p70 production at 10 uM after 24 hrs by flow cytometric analysis; type: functional, cell-based
[13] = test system: PBMC; experiment: Immunomodulatory activity in human PBMC assessed as increase in LPS-induced IL-8 production at 10 uM after 24 hrs by flow cytometric analysis; type: functional, cell-based
[14] = test system: PBMC; experiment: Immunomodulatory activity in human PBMC assessed as increase in LPS-induced IL-10 production at 10 uM after 24 hrs by flow cytometric analysis; type: functional, cell-based

SMILES | Activity [1] | Activity [2] | Activity [3] | Activity [4] | Activity [5] | Activity [6] | Activity [7] | Activity [8] | Activity [9] | Activity [10] | Activity [11] | Activity [12] | Activity [13] | Activity [14]
CCCCCCCCCCCC(=O)N[C@H](CCC(=O)N[C@@H](C/C=C/[C@@H](N)C(=O)O)C(=O)O)C(=O)O | Active | inactive | Active | Active | Active | Active | Active | Active | inactive | Active | Active | inactive | inactive | Active
CCCCCCCCCCCC(=O)N[C@H](CCC(=O)N[C@@H](CCC[C@@H](N)C(=O)O)C(=O)O)C(=O)O | Active | inactive | Active | Active | Active | Active | Active | Active | inactive | Active | Active | inactive | inactive | Active
CCCCCCCCCCCCN(CCCCCCCCCCCC)[C@H](CCC(=O)N[C@@H](C/C=C/[C@@H](N)C(=O)O)C(=O)O)C(=O)O | inactive | inactive | Active | Active | Active | Active | Active | Active | inactive | Active | Active | inactive | inactive | inactive
CCCCCCCCCCCC(=O)N[C@H](CCC(=O)N[C@@H](/C=C/C[C@@H](N)C(=O)O)C(=O)O)C(=O)O | inactive | inactive | Active | Active | Active | Active | Active | Active | inactive | Active | Active | inactive | inactive | Active
CCCCCCCCCCCCN(CCCCCCCCCCCC)[C@H](CCC(=O)N[C@@H](/C=C/C[C@@H](N)C(=O)O)C(=O)O)C(=O)O | inactive | inactive | Active | Active | Active | Active | Active | Active | inactive | Active | Active | inactive | inactive | Active
